Patent US7563805B2, “Tri-, tetra-substituted-3-aminopyrrolidine derivative” (Daiichi Pharmaceutical Co., Ltd., priority 2005, dated 2009)
≈ marks a conversion by molar mass, not a printed value. Where two headings read alike, the source gives them in different places.

Key:
E. coli NIHJ = assay: antibacterial activity (MIC), standard method of Japanese Society of Chemotherapy
P. vulgaris, 08601 = assay: as above
S. marscecens, 10100 = assay: as above
P. aeruginosa, 32104 = assay: as above; conditions: P. aeruginosa
P. aeruginosa, 32121 = assay: as above
S. aureus, 209P = assay: as above
S. epidermidis, 56500 = assay: as above
E. faecalis, ATCC 19433 = assay: as above
[1] = tested on: S. aureus, 87037 (LVFX-resistant MRSA); assay: as above; conditions: S. aureus, 87037 (LVFX-resistant MRSA)
[2] = tested on: S. pneumoniae, J24 (penicillin-intermediate resistant bacteria); assay: as above
hERG K+ channel = hERG K+ channel (Homo sapiens, UniProt Q12809); assay: hERG-K^+ channel blocking effect
Sequence of hERG K+ channel (Q12809 whole entry): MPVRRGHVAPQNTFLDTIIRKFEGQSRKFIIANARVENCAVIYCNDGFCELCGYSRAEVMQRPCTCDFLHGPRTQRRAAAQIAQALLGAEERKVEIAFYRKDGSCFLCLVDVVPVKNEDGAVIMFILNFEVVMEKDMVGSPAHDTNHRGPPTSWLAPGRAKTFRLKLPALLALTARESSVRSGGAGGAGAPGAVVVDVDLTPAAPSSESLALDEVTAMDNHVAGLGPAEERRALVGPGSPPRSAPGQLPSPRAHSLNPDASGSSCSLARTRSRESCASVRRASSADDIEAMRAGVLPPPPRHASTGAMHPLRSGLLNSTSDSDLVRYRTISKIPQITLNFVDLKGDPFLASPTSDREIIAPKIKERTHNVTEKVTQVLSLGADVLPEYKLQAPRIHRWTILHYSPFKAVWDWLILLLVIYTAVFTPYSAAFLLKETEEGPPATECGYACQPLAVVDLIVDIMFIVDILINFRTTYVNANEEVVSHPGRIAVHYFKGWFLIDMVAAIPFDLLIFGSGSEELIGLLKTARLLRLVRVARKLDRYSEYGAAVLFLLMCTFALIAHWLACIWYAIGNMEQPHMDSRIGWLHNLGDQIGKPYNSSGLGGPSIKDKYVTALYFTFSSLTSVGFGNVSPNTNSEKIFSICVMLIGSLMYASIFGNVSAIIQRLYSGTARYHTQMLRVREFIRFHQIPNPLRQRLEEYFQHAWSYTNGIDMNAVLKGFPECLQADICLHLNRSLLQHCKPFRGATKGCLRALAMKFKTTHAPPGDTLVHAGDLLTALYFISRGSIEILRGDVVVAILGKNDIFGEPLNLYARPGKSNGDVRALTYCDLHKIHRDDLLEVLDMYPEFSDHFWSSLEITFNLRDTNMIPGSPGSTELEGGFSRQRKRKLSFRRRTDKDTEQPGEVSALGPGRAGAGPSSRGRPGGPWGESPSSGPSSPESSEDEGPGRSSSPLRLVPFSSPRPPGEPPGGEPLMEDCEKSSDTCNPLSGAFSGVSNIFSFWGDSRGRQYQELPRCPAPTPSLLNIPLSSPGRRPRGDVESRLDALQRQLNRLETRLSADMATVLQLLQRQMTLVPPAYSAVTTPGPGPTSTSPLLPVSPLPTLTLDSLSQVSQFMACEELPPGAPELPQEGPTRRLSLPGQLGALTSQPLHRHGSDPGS

[3] = Proteus vulgaris, 08601, P. vulgaris
[4] = Staphylococcus epidermidis, 56500, S. epidermidis
[5] = Enterococcus faecalis, ATCC19433, E. faecalis

`COc1c(N2CC(OC)C(C)(N)C2)c(F)cc2c(=O)c(C(=O)O)cn([C@@H]3C[C@@H]3F)c12` (stereo partly drawn) [Example 19, 7-(3-Amino-4-methoxy-3-methylpyrrolidine-1-yl)-6-fluoro-1-[(1R,2S)-2-fluorocyclopropyl]-8-methoxy-1,4-dihydro-4-oxoquinoline-3-carboxylic acid] showed a melting point of 162 to 163 °C.
Work on `COc1c(N2CC(C)(N)C3(CC3)C2)c(F)cc2c(=O)c(C(=O)O)cn([C@@H]3C[C@@H]3F)c12` (stereo partly drawn) [Example 10, 7-(7-Amino-7-methyl-5-azaspiro[2.4]heptan-5-yl)-6-fluoro-1-[(1R,2S)-2-fluorocyclopropyl]-8-methoxy-1,4-dihydro-4-oxoguinoline-3-carboxylic acid] yielded an MIC (E. coli NIHJ; E. coli NIHJ) of 0.025 µg/mL (≈ 0.0596 µM), an MIC (P. vulgaris, 08601; P. vulgaris) of 0.05 µg/mL (≈ 0.119 µM) and an MIC (S. marscecens, 10100) of 0.2 µg/mL (≈ 0.477 µM). For the same compound, the MIC (P. aeruginosa, 32104) was 0.39 µg/mL (≈ 0.93 µM), the MIC (P. aeruginosa, 32121; P. aeruginosa) was 0.2 µg/mL (≈ 0.477 µM) and the MIC (S. aureus, 209P) was 0.05 µg/mL (≈ 0.119 µM). It also gave an MIC (S. epidermidis, 56500; S. epidermidis) of 0.2 µg/mL (≈ 0.477 µM), an MIC (E. faecalis, ATCC 19433; E. faecalis) of 0.78 µg/mL (≈ 1.86 µM) and an MIC [1] of 1.56 µg/mL (≈ 3.72 µM). For the same compound, the MIC [2] was 0.39 µg/mL (≈ 0.93 µM).
With `COc1c(N2CC(F)[C@](C)(N)C2)c(F)cc2c(=O)c(C(=O)O)cn([C@@H]3C[C@@H]3F)c12` (single isomer, unassigned) [Example 26] the melting point was 206 to 208 °C.
Work on `COc1c(N2C[C@H](CF)[C@](C)(N)C2)c(F)cc2c(=O)c(C(=O)O)cn([C@@H]3C[C@@H]3F)c12` [Example 20, 7-[(3S,4S)-3-Amino-4-fluoromethyl-3-methylpyrrolidin-1-yl]-6-fluoro-1-[(1R,2S)-2-fluoro-1-cyclopropyl]-8-methoxy-1,4-dihydro-4-oxoquinoline-3-carboxylic acid] yielded a melting point of 187 to 189 °C, an inhibition at 30 µM (hERG K+ channel) of 1.4 ± 4.5% and an inhibition at 100 µM (hERG K+ channel) of 8.5 ± 6.1%. For the same compound, the inhibition at 300 µM (hERG K+ channel) was 14.5 ± 6%.
Compound `COc1c(N2CC(OC)C(C)(N)C2)c(F)cc2c(=O)c(C(=O)O)cn([C@@H]3C[C@@H]3F)c12` (stereo partly drawn) [Example 18, 7-(3-Amino-4-methoxy-3-methylpyrrolidine-1-yl)-6-fluoro-1-[(1R,2S)-2-fluorocyclopropyl]-8-methoxy-1,4-dihydro-4-oxoquinoline-3-carboxylic acid] has a melting point of 150 to 151 °C.
`Cc1c(N2CC(C)[C@@](N)(CF)C2)c(F)cc2c(=O)c(C(=O)O)cn([C@@H]3C[C@@H]3F)c12` (stereo partly drawn) [Example 31, 7-[(3S)-3-Amino-3-fluoromethyl-4-methylpyrrolidin-1-yl]-6-fluoro-1-[(1R,2S)-2-fluoro-1-cyclopropyl]-8-methyl-1,4-dihydro-4-oxoquinoline-3-carboxylic acid] showed a melting point of 200 to 203 °C, an MIC (E. coli NIHJ; Escherichia coli) of 0.006 µg/mL (≈ 0.0147 µM) and an MIC (P. vulgaris, 08601; [3]) of 0.012 µg/mL (≈ 0.0293 µM). For the same compound, the MIC (S. marscecens, 10100) was 0.1 µg/mL (≈ 0.244 µM), the MIC (P. aeruginosa, 32121; Pseudomonas aeruginosa) was 0.05 µg/mL (≈ 0.122 µM) and the MIC (S. aureus, 209P; Staphylococcus aureus) was 0.012 µg/mL (≈ 0.0293 µM). The MIC (S. epidermidis, 56500; [4]) was 0.025 µg/mL (≈ 0.0611 µM), the MIC (E. faecalis, ATCC 19433; [5]) was 0.1 µg/mL (≈ 0.244 µM) and the MIC ([1]; Staphylococcus aureus, MRSA) was 0.1 µg/mL (≈ 0.244 µM). For the same compound, the MIC ([2]; Streptococcus pneumoniae) was 0.05 µg/mL (≈ 0.122 µM).
In the case of `CCC1CN(c2c(F)cc3c(=O)c(C(=O)O)cn([C@@H]4C[C@@H]4F)c3c2OC)CC1(C)N` (relative stereo) [Example 14, 7-[(3R*,4R*)-3-Amino-4-ethyl-3-methylpyrrolidin-1-yl]-6-fluoro-1-[(1R,2S)-2-fluorocyclopropyl]-8-methoxy-1,4-dihydro-4-oxoquinoline-3-carboxylic acid], the melting point is reported as 167 to 169 °C.
With `Cc1c(N2C[C@H](CF)[C@](C)(N)C2)c(F)cc2c(=O)c(C(=O)O)cn(C3CC3)c12` [Example 23, 7-[(3S,4S)-3-Amino-4-fluoromethyl-3-methylpyrrolidin-1-yl]-1-cyclopropyl-6-fluoro-8-methyl-1,4-dihydro-4-oxoquinoline-3-carboxylic acid] the melting point was 212 to 215 °C, the inhibition at 30 µM (hERG K+ channel) was 3 ± 4.1% and the inhibition at 100 µM (hERG K+ channel) was 4.6 ± 4.7%. For the same compound, the inhibition at 300 µM (hERG K+ channel) was 16.7 ± 8.4%, the MIC (E. coli NIHJ; Escherichia coli) was no more than 0.003 µg/mL and the MIC (P. vulgaris, 08601; [3]) was 0.006 µg/mL (≈ 0.0153 µM). The MIC (S. marscecens, 10100) was 0.05 µg/mL (≈ 0.128 µM), the MIC (P. aeruginosa, 32121; Pseudomonas aeruginosa) was 0.05 µg/mL (≈ 0.128 µM) and the MIC (S. aureus, 209P; Staphylococcus aureus) was 0.025 µg/mL (≈ 0.0639 µM). The MIC (S. epidermidis, 56500; [4]) was 0.05 µg/mL (≈ 0.128 µM), the MIC (E. faecalis, ATCC 19433; [5]) was 0.1 µg/mL (≈ 0.255 µM) and the MIC ([1]; Staphylococcus aureus, MRSA) was 0.39 µg/mL (≈ 0.996 µM). For the same compound, the MIC ([2]; Streptococcus pneumoniae) was 0.05 µg/mL (≈ 0.128 µM).
